# Source: US6358885B1, “Substituted phenylheterocyclic herbicides” (Mississippi State University, priority 1992, dated 2002)
# How the values were obtained:
# [1] = system: rape; test: Test C preemergence/postemergence greenhouse plant response rating 0 to 100; format: in vivo, Brassica napus; settings: POSTEMERGENCE; for Plant response rating, Rape: 0 to 100 scale
# Method in brief: (§1)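 Compounds in non-phytotoxic solvent applied preemergence to sandy loam one day after planting, postemergence at the 1–4 leaf stage, or to ~2.5 cm floodwater over silt loam.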
# [2] = system: cotton; test: Test B preemergence/postemergence greenhouse plant response rating 0 to 10; format: in vivo, Gossypium hirsutum; settings: 0 to 10 scale
# Method in brief: (§2)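 Test chemicals, dissolved in a non-phytotoxic solvent, were applied to soil at planting and, at the same time, over foliage of seedlings at the one to four leaf stage.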
# [3] = system: sugar beet; test: Test C preemergence/postemergence greenhouse plant response rating 0 to 100; format: in vivo, Beta vulgaris; settings: POSTEMERGENCE; for Plant response rating, Sugar beet: 0 to 100 scale
# Method in brief: as §1
# [4] = system: barley; test: as above; format: in vivo, Hordeum vulgare; settings: POSTEMERGENCE; for Plant response rating Barley Igri: 0 to 100 scale
# Method in brief: as §1
# [5] = system: soybean; test: Test B preemergence/postemergence greenhouse plant response rating 0 to 10; format: in vivo, Glycine max; settings: 0 to 10 scale
# Method in brief: as §2
# [6] = system: purple nutsedge; test: as above; format: in vivo, Cyperus rotundus; settings: 0 to 10 scale
# Method in brief: as §2
# [7] = system: wild buckwheat; test: as above; format: in vivo, Polygonum convolvulus; settings: 0 to 10 scale
# Method in brief: as §2
# [8] = system: velvetleaf; test: Test C preemergence/postemergence greenhouse plant response rating 0 to 100; format: in vivo, Abutilon theophrasti; settings: POSTEMERGENCE; for Plant response rating, Velvetleaf: 0 to 100 scale
# Method in brief: as §1
# [9] = system: sorghum; test: as above; format: in vivo, Sorghum bicolor; settings: POSTEMERGENCE; for Plant response rating, Sorghum: 0 to 100 scale
# Method in brief: as §1
# [10] = system: morningglory; test: as above; format: in vivo, Ipomoea hederacea; settings: POSTEMERGENCE; for Plant response rating, Morningglory: 0 to 100 scale
# Method in brief: as §1
# [11] = system: soybean; test: as above; format: in vivo, Glycine max; settings: POSTEMERGENCE; for Plant response rating, Soybean: 0 to 100 scale
# Method in brief: as §1
# [12] = system: lambsquarters; test: Test B preemergence/postemergence greenhouse plant response rating 0 to 10; format: in vivo, Chenopodium album; settings: 0 to 10 scale
# Method in brief: as §2
# [13] = system: rice; test: as above; format: in vivo, Oryza sativa; settings: 0 to 10 scale
# Method in brief: as §2
# [14] = system: lambsquarters; test: Test C preemergence/postemergence greenhouse plant response rating 0 to 100; format: in vivo, Chenopodium album; settings: POSTEMERGENCE; for Plant response rating Lambsquarters: 0 to 100 scale
# Method in brief: as §1
# [15] = system: velvetleaf; test: Test B preemergence/postemergence greenhouse plant response rating 0 to 10; format: in vivo, Abutilon theophrasti; settings: 0 to 10 scale
# Method in brief: as §2
# [16] = system: corn; test: Test C preemergence/postemergence greenhouse plant response rating 0 to 100; format: in vivo, Zea mays; settings: POSTEMERGENCE; for Plant response rating, Corn: 0 to 100 scale
# Method in brief: as §1
# [17] = system: cheatgrass; test: Test B preemergence/postemergence greenhouse plant response rating 0 to 10; format: in vivo, Bromus secalinus; settings: 0 to 10 scale
# Method in brief: as §2
# [18] = system: umbrella sedge; test: Test C flood test plant response rating 0 to 100; format: in vivo, Cyperus difformis; settings: for Plant response rating (0 to 100), Umbrella sedge: under POSTEMERGENCE head (flood test species); for Plant response rating Umbrella sedge: flood test species listed under POSTEMERGENCE, 0 to 100 scale
# Method in brief: as §1
smiles,measurement,setting,value
CCOC(=O)COc1cc(-c2nn3c(c2Cl)CCCC3)c(F)cc1Cl [Compound 42],"Plant response rating, Rape",[1]; 62 g/ha,95
same,"Plant response rating, Rape",[1]; 125 g/ha,100
same,"Plant response rating (0 to 100), Rape",[1]; Rate 16 g/ha,50
same,"Plant response rating (0 to 100), Rape",[1]; Rate 31 g/ha,70
same,"Plant response rating, Cotton","[2]; POSTEMERGENCE, Rate 50 g/ha",10
same,"Plant response rating, Cotton","[2]; POSTEMERGENCE, Rate 200 g/ha",10
same,"Plant response rating, Cotton","[2]; PREEMERGENCE, Rate 50 g/ha",0
same,"Plant response rating, Cotton","[2]; Rate 200 g/ha, PREEMERGENCE",0
same,"Plant response rating, Sugar beet",[3]; 62 g/ha,100
same,"Plant response rating, Sugar beet",[3]; 125 g/ha,100
same,"Plant response rating (0 to 100), Sugar beet",[3]; Rate 16 g/ha,100
same,"Plant response rating (0 to 100), Sugar beet",[3]; Rate 31 g/ha,100
same,Plant response rating Barley Igri,[4]; 62 g/ha,30
same,Plant response rating Barley Igri,[4]; 125 g/ha,40
same,"Plant response rating (0 to 100), Barley Igri",[4]; Rate 16 g/ha,20
same,"Plant response rating (0 to 100), Barley Igri",[4]; Rate 31 g/ha,30
same,"Plant response rating, Soybean","[5]; POSTEMERGENCE, Rate 50 g/ha",4
same,"Plant response rating, Soybean","[5]; PREEMERGENCE, Rate 50 g/ha",0
same,"Plant response rating, Soybean","[5]; Rate 200 g/ha, POSTEMERGENCE",5
same,"Plant response rating, Soybean","[5]; Rate 200 g/ha, PREEMERGENCE",0
same,"Plant response rating, Nutsedge","[6]; POSTEMERGENCE, Rate 50 g/ha",2
same,"Plant response rating, Nutsedge","[6]; PREEMERGENCE, Rate 50 g/ha",0
same,"Plant response rating, Nutsedge","[6]; Rate 200 g/ha, POSTEMERGENCE",5
same,"Plant response rating, Nutsedge","[6]; Rate 200 g/ha, PREEMERGENCE",0
same,"Plant response rating, Wild buckwheat","[7]; POSTEMERGENCE, Rate 50 g/ha",9
same,"Plant response rating, Wild buckwheat","[7]; PREEMERGENCE, Rate 50 g/ha",0
same,"Plant response rating, Wild buckwheat","[7]; Rate 200 g/ha, POSTEMERGENCE",9
same,"Plant response rating, Wild buckwheat","[7]; Rate 200 g/ha, PREEMERGENCE",7
same,"Plant response rating, Velvetleaf",[8]; 62 g/ha,100
same,"Plant response rating, Velvetleaf",[8]; 125 g/ha,100
same,"Plant response rating (0 to 100), Velvetleaf",[8]; Rate 16 g/ha,100
same,"Plant response rating (0 to 100), Velvetleaf",[8]; Rate 31 g/ha,100
same,"Plant response rating, Sorghum",[9]; 62 g/ha,60
same,"Plant response rating, Sorghum",[9]; 125 g/ha,70
same,"Plant response rating (0 to 100), Sorghum",[9]; Rate 16 g/ha,40
same,"Plant response rating (0 to 100), Sorghum",[9]; Rate 31 g/ha,50
same,"Plant response rating, Morningglory",[10]; 62 g/ha,100
same,"Plant response rating, Morningglory",[10]; 125 g/ha,100
same,"Plant response rating (0 to 100), Morningglory",[10]; Rate 16 g/ha,90
same,"Plant response rating (0 to 100), Morningglory",[10]; Rate 31 g/ha,95
same,"Plant response rating, Soybean",[11]; 62 g/ha,60
same,"Plant response rating, Soybean",[11]; 125 g/ha,80
same,"Plant response rating (0 to 100), Soybean",[11]; Rate 16 g/ha,20
same,"Plant response rating (0 to 100), Soybean",[11]; Rate 31 g/ha,40
same,"Plant response rating, Lambsquarter","[12]; POSTEMERGENCE, Rate 50 g/ha",9
same,"Plant response rating, Lambsquarter","[12]; PREEMERGENCE, Rate 50 g/ha",9
same,"Plant response rating, Lambsquarter","[12]; Rate 200 g/ha, POSTEMERGENCE",10
same,"Plant response rating, Lambsquarter","[12]; Rate 200 g/ha, PREEMERGENCE",10
same,"Plant response rating, Rice","[13]; POSTEMERGENCE, Rate 50 g/ha",4
same,"Plant response rating, Rice","[13]; PREEMERGENCE, Rate 50 g/ha",0
same,"Plant response rating, Rice","[13]; Rate 200 g/ha, POSTEMERGENCE",6
same,"Plant response rating, Rice","[13]; Rate 200 g/ha, PREEMERGENCE",2
same,Plant response rating Lambsquarters,[14]; 62 g/ha,100
same,Plant response rating Lambsquarters,[14]; 125 g/ha,100
same,"Plant response rating (0 to 100), Lambsquarters",[14]; Rate 16 g/ha,100
same,"Plant response rating (0 to 100), Lambsquarters",[14]; Rate 31 g/ha,100
same,"Plant response rating, Velvetleaf","[15]; POSTEMERGENCE, Rate 50 g/ha",10
same,"Plant response rating, Velvetleaf","[15]; PREEMERGENCE, Rate 50 g/ha",0
same,"Plant response rating, Velvetleaf","[15]; Rate 200 g/ha, POSTEMERGENCE",10
same,"Plant response rating, Velvetleaf","[15]; Rate 200 g/ha, PREEMERGENCE",6
same,"Plant response rating, Corn",[16]; 62 g/ha,40
same,"Plant response rating, Corn",[16]; 125 g/ha,40
same,"Plant response rating (0 to 100), Corn",[16]; Rate 16 g/ha,20
same,"Plant response rating (0 to 100), Corn",[16]; Rate 31 g/ha,30
same,"Plant response rating, Cheatgrass","[17]; POSTEMERGENCE, Rate 50 g/ha",1
same,"Plant response rating, Cheatgrass","[17]; POSTEMERGENCE, Rate 200 g/ha",3
same,"Plant response rating, Cheatgrass","[17]; PREEMERGENCE, Rate 50 g/ha",0
same,"Plant response rating, Cheatgrass","[17]; Rate 200 g/ha, PREEMERGENCE",0
same,"Plant response rating (0 to 100), Umbrella sedge",[18]; Rate 16 g/ha,0
same,"Plant response rating (0 to 100), Umbrella sedge",[18]; Rate 31 g/ha,10
same,Plant response rating Umbrella sedge,[18]; 62 g/ha,70
same,Plant response rating Umbrella sedge,[18]; 125 g/ha,90
